Assay results published in article PMC5218480 (PLoS ONE, 2017).

Tested on: MV-4-11 cells
Test: Gene expression microarray analysis (Affymetrix PrimeView) and GSEA
Format: cell-based, human
Design: RFU PODN (11730768_x_at) / Fold change /veh PODN (11730768_x_at) / RFU LINC00158 (11744669_a_at) / Fold change /veh LINC00158 (11744669_a_at) / RFU DUSP10 (11751237_a_at) / Fold change /veh DUSP10 (11751237_a_at) / RFU ID3 (11757404_x_at) / Fold change /veh ID3 (11757404_x_at) / RFU PLEKHG5 (11737974_s_at) / Fold change /veh PLEKHG5 (11737974_s_at) / RFU LRRC4B (11730491_at) / Fold change /veh LRRC4B (11730491_at) / RFU GIMAP4 (11747438_a_at) / Fold change /veh GIMAP4 (11747438_a_at) / RFU KRT8 (11758183_x_at) / Fold change /veh KRT8 (11758183_x_at) / RFU CNN1 (11734310_a_at) / Fold change /veh CNN1 (11734310_a_at) / RFU VPS37D (11726825_at) / Fold change /veh VPS37D (11726825_at) / RFU C10orf10 (11716522_x_at) / Fold change /veh C10orf10 (11716522_x_at) / RFU KIR2DL2 /// KIR2DL4 /// KIR2DL5A /// KIR2DL5B /// KIR2DS1 /// KIR2DS2 /// KIR2DS3 /// KIR2DS4 /// KIR3DL3 /// KIR3DL3 /// KIR3DS1 (11738374_at) / Fold change /veh KIR2DL2 /// KIR2DL4 /// KIR2DL5A /// KIR2DL5B /// KIR2DS1 /// KIR2DS2 /// KIR2DS3 /// KIR2DS4 /// KIR3DL3 /// KIR3DL3 /// KIR3DS1 (11738374_at) / RFU C1QL1 (11718748_at) / Fold change /veh C1QL1 (11718748_at) / RFU TMPRSS4 (11747572_a_at) / Fold change /veh TMPRSS4 (11747572_a_at) / RFU HAMP (11756126_x_at) / Fold change /veh HAMP (11756126_x_at) / RFU RNFT2 (11725882_a_at) / Fold change /veh RNFT2 (11725882_a_at) / RFU NR4A2 (11747474_a_at) / Fold change /veh NR4A2 (11747474_a_at) / RFU ABCC12 (11746883_a_at) / Fold change /veh ABCC12 (11746883_a_at) / RFU TMEM136 (11760407_x_at) / Fold change /veh TMEM136 (11760407_x_at) / RFU CLDN22 /// WWC2 (11732394_at) / Fold change /veh CLDN22 /// WWC2 (11732394_at) / RFU HLA-DPB1 (11760878_x_at) / Fold change /veh HLA-DPB1 (11760878_x_at) / RFU SPINT1 (11716480_a_at) / Fold change /veh SPINT1 (11716480_a_at) / RFU GAP43 (11754022_s_at) / Fold change /veh GAP43 (11754022_s_at) / RFU A4GNT (11735810_at) / Fold change /veh A4GNT (11735810_at) / RFU PRB3 (11715151_x_at) / Fold change /veh PRB3 (11715151_x_at) / RFU TUBB4B (11761932_at) / Fold change /veh TUBB4B (11761932_at) / RFU CAPN14 (11732068_a_at) / Fold change /veh CAPN14 (11732068_a_at) / RFU TMCC2 (11721928_a_at) / Fold change /veh TMCC2 (11721928_a_at) / RFU IRGQ (11745062_a_at) / Fold change /veh IRGQ (11745062_a_at) / RFU FAM174B (11720279_a_at) / Fold change /veh FAM174B (11720279_a_at) / RFU TMPRSS4 (11748680_a_at) / Fold change /veh TMPRSS4 (11748680_a_at) / RFU FAM212B (11763350_a_at) / Fold change /veh FAM212B (11763350_a_at) / RFU PLEKHG5 (11743358_a_at) / Fold change /veh PLEKHG5 (11743358_a_at) / RFU ZSCAN30 (11745921_a_at) / Fold change /veh ZSCAN30 (11745921_a_at) / RFU CMKLR1 (11741424_a_at) / Fold change /veh CMKLR1 (11741424_a_at) / RFU LOC101060620 /// MAPK8IP1 (11723275_at) / Fold change /veh LOC101060620 /// MAPK8IP1 (11723275_at) / RFU SPTSSB (11747773_x_at) / Fold change /veh SPTSSB (11747773_x_at) / RFU PRSS12 (11739890_at) / Fold change /veh PRSS12 (11739890_at) / RFU BIN1 (11741810_x_at) / Fold change /veh BIN1 (11741810_x_at) / RFU WNT11 (11732464_a_at) / Fold change /veh WNT11 (11732464_a_at) / RFU C10orf10 (11716521_a_at) / Fold change /veh C10orf10 (11716521_a_at) / RFU C5orf56 (11738089_at) / Fold change /veh C5orf56 (11738089_at) / RFU CYB561 (11721691_x_at) / Fold change /veh CYB561 (11721691_x_at) / RFU ANKRD19P (11752326_a_at) / Fold change /veh ANKRD19P (11752326_a_at) / RFU OR2T12 /// OR2T33 /// OR2T8 (11738714_s_at) / Fold change /veh OR2T12 /// OR2T33 /// OR2T8 (11738714_s_at) / RFU VCAN (11748164_a_at) / Fold change /veh VCAN (11748164_a_at) / RFU JSRP1 (11732532_at) / Fold change /veh JSRP1 (11732532_at) / RFU KRTAP10-11 (11738290_x_at) / Fold change /veh KRTAP10-11 (11738290_x_at) / RFU MYO3A (11730013_a_at) / Fold change /veh MYO3A (11730013_a_at) / RFU EBF3 (11725865_a_at) / Fold change /veh EBF3 (11725865_a_at) / RFU CAMK2N1 (11719241_x_at) / Fold change /veh CAMK2N1 (11719241_x_at) / RFU C5orf56 (11738088_a_at) / Fold change /veh C5orf56 (11738088_a_at) / RFU OLFML3 (11715873_a_at) / Fold change /veh OLFML3 (11715873_a_at) / RFU LOC100653217 /// NTM (11731650_a_at) / Fold change /veh LOC100653217 /// NTM (11731650_a_at) / RFU MAPK11 (11762145_a_at) / Fold change /veh MAPK11 (11762145_a_at) / RFU FIZ1 (11724087_x_at) / Fold change /veh FIZ1 (11724087_x_at) / RFU OASL (11726364_x_at) / Fold change /veh OASL (11726364_x_at) / RFU SOX15 (11748057_x_at) / Fold change /veh SOX15 (11748057_x_at) / RFU CD79A (11719716_a_at) / Fold change /veh CD79A (11719716_a_at) / RFU HIST1H1D (11736915_at) / Fold change /veh HIST1H1D (11736915_at) / RFU CASKIN2 (11723855_a_at) / Fold change /veh CASKIN2 (11723855_a_at) / RFU LOC730098 (11760151_x_at) / Fold change /veh LOC730098 (11760151_x_at) / RFU OR4N2 (11742367_at) / Fold change /veh OR4N2 (11742367_at) / RFU PRRT2 (11749266_a_at) / Fold change /veh PRRT2 (11749266_a_at) / RFU SNX32 (11753110_a_at) / Fold change /veh SNX32 (11753110_a_at) / RFU CDHR5 (11726645_a_at) / Fold change /veh CDHR5 (11726645_a_at) / RFU RCAN1 (11760418_a_at) / Fold change /veh RCAN1 (11760418_a_at) / RFU FAM167A (11723789_a_at) / Fold change /veh FAM167A (11723789_a_at) / RFU FAM26E (11764081_at) / Fold change /veh FAM26E (11764081_at) / RFU ISYNA1 (11749810_s_at) / Fold change /veh ISYNA1 (11749810_s_at) / RFU ACY1 (11761880_at) / Fold change /veh ACY1 (11761880_at) / RFU 11764098_at / Fold change /veh 11764098_at / RFU SAMD14 (11745864_x_at) / Fold change /veh SAMD14 (11745864_x_at) / RFU NPB (11741838_a_at) / Fold change /veh NPB (11741838_a_at) / RFU TMPRSS6 (11731388_a_at) / Fold change /veh TMPRSS6 (11731388_a_at) / RFU KRTAP10-2 (11738614_at) / Fold change /veh KRTAP10-2 (11738614_at) / RFU ARHGAP8 /// PRR5-ARHGAP8 (11727945_x_at) / Fold change /veh ARHGAP8 /// PRR5-ARHGAP8 (11727945_x_at) / RFU KRTAP5-7 /// NADSYN1 (11734609_at) / Fold change /veh KRTAP5-7 /// NADSYN1 (11734609_at) / RFU RASL12 (11751679_a_at) / Fold change /veh RASL12 (11751679_a_at) / RFU CDKN2B (11736163_a_at) / Fold change /veh CDKN2B (11736163_a_at) / RFU PRF1 (11729649_at) / Fold change /veh PRF1 (11729649_at) / RFU, ZNF638 /// ZNF638-IT1 / Fold change vs veh, ZNF638 /// ZNF638-IT1 / RFU, PANK3 / Fold change vs veh, PANK3 / RFU, SH3YL1 / Fold change vs veh, SH3YL1 / RFU, ZEB2 / Fold change vs veh, ZEB2 / RFU, NRIP1 / Fold change vs veh, NRIP1 / RFU, PTTG1IP / Fold change vs veh, PTTG1IP / RFU, CAPN2 / Fold change vs veh, CAPN2 / RFU, MED14 / Fold change vs veh, MED14 / RFU, SNORA58 / Fold change vs veh, SNORA58 / RFU, C1orf63 / Fold change vs veh, C1orf63 / RFU, LRRFIP1 / Fold change vs veh, LRRFIP1 / RFU, NDUFAF7 / Fold change vs veh, NDUFAF7 / RFU, SLC12A2 / Fold change vs veh, SLC12A2 / RFU, IBTK / Fold change vs veh, IBTK / RFU, ESF1 / Fold change vs veh, ESF1 / Fold change vs veh, TMEM50B / RFU, TAOK1 / Fold change vs veh, TAOK1 / RFU, ACBD3 / Fold change vs veh, ACBD3 / RFU, TMA16 / Fold change vs veh, TMA16 / RFU, RWDD3 / Fold change vs veh, RWDD3 / RFU, BCAT1 / Fold change vs veh, BCAT1 / RFU, EDEM3 / Fold change vs veh, EDEM3 / RFU, TMEM33 / Fold change vs veh, TMEM33 / RFU, WDR75 / Fold change vs veh, WDR75 / RFU, AHCTF1 / Fold change vs veh, AHCTF1 / RFU, TFRC / Fold change vs veh, TFRC / RFU, ZDHHC17 / Fold change vs veh, ZDHHC17 / RFU, NOM1 / Fold change vs veh, NOM1 / RFU, ARL8B / Fold change vs veh, ARL8B / RFU, ZBTB11 / Fold change vs veh, ZBTB11 / RFU, TAMM41 / Fold change vs veh, TAMM41 / RFU, KIAA1704 /// LOC100996395 / Fold change vs veh, KIAA1704 /// LOC100996395 / RFU, ING1 / Fold change vs veh, ING1 / RFU, TRMT61B / Fold change vs veh, TRMT61B / RFU, FUBP3 / Fold change vs veh, FUBP3 / RFU, TP53 / Fold change vs veh, TP53 / RFU, TNKS2 / Fold change vs veh, TNKS2 / RFU, ZFP14 / Fold change vs veh, ZFP14 / RFU, ACTR2 / Fold change vs veh, ACTR2 / RFU, PPP3R1 / Fold change vs veh, PPP3R1 / RFU, PIK3R1 / Fold change vs veh, PIK3R1 / RFU, HNRNPA1 / Fold change vs veh, HNRNPA1 / RFU, RNF170 / Fold change vs veh, RNF170 / RFU, ZNF28 / Fold change vs veh, ZNF28 / RFU, RNGTT / Fold change vs veh, RNGTT / RFU, OGT / Fold change vs veh, OGT / RFU, BRD1 / Fold change vs veh, BRD1 / RFU, MARS / Fold change vs veh, MARS / RFU, ZNF655 / Fold change vs veh, ZNF655 / RFU, FAHD1 / Fold change vs veh, FAHD1 / RFU, BDP1 / Fold change vs veh, BDP1 / RFU, LRRCC1 / Fold change vs veh, LRRCC1 / RFU, ARID1A / Fold change vs veh, ARID1A / RFU, ZNF146 / Fold change vs veh, ZNF146 / RFU, ZNF330 / Fold change vs veh, ZNF330 / RFU, GPN3 / Fold change vs veh, GPN3 / RFU, C9orf123 / Fold change vs veh, C9orf123 / RFU, N4BP2L2 / Fold change vs veh, N4BP2L2 / RFU, ARFIP1 / Fold change vs veh, ARFIP1 / RFU, FAM179B / Fold change vs veh, FAM179B / RFU, BCL10 / Fold change vs veh, BCL10 / RFU, UHRF1BP1L / Fold change vs veh, UHRF1BP1L / RFU, BET1 / Fold change vs veh, BET1 / RFU, CNOT2 / Fold change vs veh, CNOT2 / RFU, ZNF268 / Fold change vs veh, ZNF268 / Fold change vs veh, ZNF507 / RFU, DGCR2 / Fold change vs veh, DGCR2 / RFU, WDSUB1 / Fold change vs veh, WDSUB1 / Fold change vs veh, HSP90B1 /// MIR3652 / RFU, ADSS / Fold change vs veh, ADSS / RFU, GK / Fold change vs veh, GK / RFU, ZNF148 / Fold change vs veh, ZNF148 / RFU, TAF9 / Fold change vs veh, TAF9 / RFU, SLC1A5 / Fold change vs veh, SLC1A5 / RFU, SLMO2 / Fold change vs veh, SLMO2 / RFU, ABCC4 / Fold change vs veh, ABCC4 / RFU, LOC101060439 /// RAP1B / Fold change vs veh, LOC101060439 /// RAP1B / RFU, RFX7 / Fold change vs veh, RFX7 / RFU, GTPBP10 / Fold change vs veh, GTPBP10 / RFU, CNEP1R1 / Fold change vs veh, CNEP1R1 / RFU, BIVM-ERCC5 /// ERCC5 / Fold change vs veh, BIVM-ERCC5 /// ERCC5 / RFU, ILF3 / Fold change vs veh, ILF3 / RFU 11762660_at / Fold change /veh 11762660_at / RFU VCAN (11757783_s_at) / Fold change /veh VCAN (11757783_s_at) / RFU DDX43 (11728927_at) / Fold change /veh DDX43 (11728927_at) / RFU KRT8 (11758188_x_at) / Fold change /veh KRT8 (11758188_x_at) / RFU NKD1 (11759106_at) / Fold change /veh NKD1 (11759106_at) / RFU SRD5A1 (11742802_a_at) / Fold change /veh SRD5A1 (11742802_a_at) / RFU TPSAB1 /// TPSB2 (11721975_s_at) / Fold change /veh TPSAB1 /// TPSB2 (11721975_s_at) / RFU GSTM3 (11746129_a_at) / Fold change /veh GSTM3 (11746129_a_at) / RFU IL23R (11737362_x_at) / Fold change /veh IL23R (11737362_x_at) / RFU TMEM51 (11727254_a_at) / Fold change /veh TMEM51 (11727254_a_at) / RFU PIWIL2 (11732686_x_at) / Fold change /veh PIWIL2 (11732686_x_at) / RFU ORM1 (11744905_x_at) / Fold change /veh ORM1 (11744905_x_at) / RFU CCDC152 (11743942_at) / Fold change /veh CCDC152 (11743942_at) / RFU ECM1 (11717891_a_at) / Fold change /veh ECM1 (11717891_a_at) / RFU IL23R (11748794_a_at) / Fold change /veh IL23R (11748794_a_at) / RFU TNFAIP8L3 (11732012_x_at) / Fold change /veh TNFAIP8L3 (11732012_x_at) / RFU MBOAT4 (11741988_at) / Fold change /veh MBOAT4 (11741988_at) / RFU 11764193_at / Fold change /veh 11764193_at / RFU TMEM53 (11763286_at) / Fold change /veh TMEM53 (11763286_at) / RFU MAGEB2 (11727129_at) / Fold change /veh MAGEB2 (11727129_at) / RFU TMEM200A (11744735_a_at) / Fold change /veh TMEM200A (11744735_a_at) / RFU CCDC152 (11751479_a_at) / Fold change /veh CCDC152 (11751479_a_at) / RFU FAM211A (11726209_a_at) / Fold change /veh FAM211A (11726209_a_at) / RFU RGS16 (11746705_a_at) / Fold change /veh RGS16 (11746705_a_at) / RFU VCAN (11755009_s_at) / Fold change /veh VCAN (11755009_s_at) / RFU RHOB (11743442_s_at) / Fold change /veh RHOB (11743442_s_at) / RFU RGS16 (11720943_a_at) / Fold change /veh RGS16 (11720943_a_at) / RFU RGS16 (11720944_at) / Fold change /veh RGS16 (11720944_at) / RFU, VPS4B / Fold change vs veh, VPS4B / RFU, CREB1 / Fold change vs veh, CREB1 / RFU, DNAJC13 / Fold change vs veh, DNAJC13 / RFU, GNAQ / Fold change vs veh, GNAQ / RFU, CDK5R1 / Fold change vs veh, CDK5R1 / RFU, ZRANB3 / Fold change vs veh, ZRANB3 / RFU, CUL4A / Fold change vs veh, CUL4A / RFU, CCNY / Fold change vs veh, CCNY / RFU, UFL1 / Fold change vs veh, UFL1 / RFU, COG3 / Fold change vs veh, COG3 / RFU, DIAPH2 / Fold change vs veh, DIAPH2 / RFU, SKA2 / Fold change vs veh, SKA2 / RFU, AFF3 / Fold change vs veh, AFF3 / RFU, LMF1 / Fold change vs veh, LMF1 / RFU, IPO11 / Fold change vs veh, IPO11 / RFU, DFFB / Fold change vs veh, DFFB / RFU, FOXP1 / Fold change vs veh, FOXP1 / RFU, CARD8 / Fold change vs veh, CARD8 / RFU, STRN3 / Fold change vs veh, STRN3 / RFU, ADK / Fold change vs veh, ADK / RFU, RASSF2 / Fold change vs veh, RASSF2 / RFU, WIPF1 / Fold change vs veh, WIPF1 / RFU, LARP1B / Fold change vs veh, LARP1B / RFU, RASA1 / Fold change vs veh, RASA1 / RFU, RB1 / Fold change vs veh, RB1 / RFU, PPFIA1 / Fold change vs veh, PPFIA1 / RFU, MAT2A / Fold change vs veh, MAT2A / RFU, CCT5 / Fold change vs veh, CCT5 / RFU, WDR92 / Fold change vs veh, WDR92 / RFU, CUX1 / Fold change vs veh, CUX1 / RFU, TTC7A / Fold change vs veh, TTC7A / RFU, TMEM135 / Fold change vs veh, TMEM135 / RFU, DEPTOR / Fold change vs veh, DEPTOR / RFU, CPM / Fold change vs veh, CPM / RFU, DNAJB6 / Fold change vs veh, DNAJB6 / RFU, CACNA2D3 / Fold change vs veh, CACNA2D3 / RFU, DTX4 / Fold change vs veh, DTX4 / RFU, TFCP2 / Fold change vs veh, TFCP2 / RFU, GMCL1 /// GMCL1P1 / Fold change vs veh, GMCL1 /// GMCL1P1 / RFU, AEBP2 / Fold change vs veh, AEBP2 / RFU, SNHG1 /// SNORD22 /// SNORD25 /// SNORD26 /// SNORD27 /// SNORD28 /// SNORD29 /// SNORD31 / Fold change vs veh, SNHG1 /// SNORD22 /// SNORD25 /// SNORD26 /// SNORD27 /// SNORD28 /// SNORD29 /// SNORD31 / Fold change (Aza/veh), C12orf56 (ProbeSet 11735607_a_at) / Fold change (ACY-1035/veh), C12orf56 (ProbeSet 11735607_a_at) / Fold change (Aza/veh), FGFR1OP (ProbeSet 11751329_s_at) / Fold change (ACY-1035/veh), FGFR1OP (ProbeSet 11751329_s_at) / Fold change (Aza/veh), VPS36 (ProbeSet 11739960_a_at) / Fold change (ACY-1035/veh), VPS36 (ProbeSet 11739960_a_at) / RFU SYPL1 (11715823_x_at) / Fold change /veh SYPL1 (11715823_x_at) / RFU IGFBP7 (11715501_s_at) / Fold change /veh IGFBP7 (11715501_s_at) / RFU REEP3 (11722064_at) / Fold change /veh REEP3 (11722064_at) / RFU IGLL1 (11728026_x_at) / Fold change /veh IGLL1 (11728026_x_at): dose or concentration left out as unconfirmed
Settings: MV-4-11 cells, 48 hours

Nc1ncn([C@@H]2O[C@H](CO)[C@@H](O)[C@H]2O)c(=O)n1 [azacitidine]
RFU RHOB (11743442_s_at): 110.59 RFU
